Data on 13 compounds can be found in US20140128380A1, “METHODS OF MODULATING THE ACTIVITY OF THE MC1 RECEPTOR AND TREATMENT OF CONDITIONS RELATED TO THIS RECEPTOR” (Mimetica Pty Ltd, priority 2009, published 2014).

One assay concerns the target T1, human MC1R (hMC1R) (Homo sapiens, UniProt Q01726).
T1 construct: purchased Perkin Elmer ES-195-M400UA
The assay is described as follows: Human MC1R radioligand binding assay (displacement of 125I-labeled NDP-MSH, Perkin Elmer hMC1R membranes). As to conditions: displacement of [125I]NDP-MSH, compounds tested as trifluoroacetate or hydrochloride salts or free base. The method, boiled down:
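Frozen human MC1R membranes were incubated with in-house iodinated, HPLC-purified [125I]NDP-MSH for 1 hr at 37° C. Binding was measured as displacement of the labeled peptide.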
In general terms: Loss of bound radioactivity is the signal in a displacement assay; it reports binding, not function.

Assay [1] has as its target T2, human MC1R (Homo sapiens, UniProt Q01726). The assay is described as follows: cAMP accumulation in MM96L cells transiently transfected with wild type MC1R. Format: cell-based. As to conditions: 30 min stimulation with 10 μM compound. How it is done:
In a similar assay testing for MC1R agonism, MM96L cells were transiently transfected with wild type MC1R and stimulated with compound (10 μM) for different time points, with cAMP accumulation compared to basal cAMP levels and the cAMP response to stimulation with NDP-MSH

The target in assay [2] is T2, human MC1R. The assay is described as follows: cAMP stimulation assay, agonist mode, HEK 293 cells transiently expressing MC1 receptor (Alphascreen). It counts as cell-based. Also on record: host or cells: HEK 293 (transient transfection). Particulars: HEK293 cell; read-out: human MC1R agonism (cAMP EC50 HEK293 cell). How it is done: HEK 293 cells transiently expressing the melanocortin MC1 receptor were suspended in stimulation buffer (Hanks buffered saline solution (HBSS), 0.1% bovine serum albumin, protease inhibitors and 0.5 mM 3-Isobutyl-1-methylxanthine) at 4×10^6 cells/mL. 5 μl of cells, plus the compounds/peptides as described below, were added to wells of a 384-well plate as soon as possible after resuspension.
To detect agonist activity, test compounds at varying concentrations were diluted in stimulation buffer at two times concentrate and 5 μl was added to wells containing cells. Positive control wells contained NDP-MSH or alpha-MSH alone (no compound) at two times concentrate
Basal level (of cAMP) control wells contained stimulation buffer only (no agonist or compounds). Known concentrations of cAMP (standards) in stimulation buffer were included on the plate, but no cells were added to these wells. The plate was then incubated for 30 mins at 37° C. with gentle shaking. After incubation, 10 μl of lysis buffer (10% Tween 20, 1 M HEPES, 0.1% BSA, protease inhibitors, ddH2O) was added to all wells to be measured. Detection of cAMP was then achieved using the Alphascreen cAMP kit (Perkin Elmer, USA), briefly described as follows. A dilution of 10 μl acceptor beads/mL of lysis buffer was prepared in low light conditions. 5 μl of diluted acceptor beads were added to each well to be measured, then the plate was incubated for 30 mins at room temperature, in the dark, with gentle shaking. In low light conditions, donor beads were diluted at 10 μl/mL of lysis buffer, to which 0.75 μl biotinylated cAMP/mL of lysis buffer was added. This mixture was allowed to incubate for 30 mins at room temperature (in the dark) before proceeding with the assay. Following incubation, 5 μl/mL of biotinylated cAMP/Donor bead mix were added per well in low light conditions and the plate was incubated in the dark, at room temperature, for a further hr. Plates were read on an Envision plate reader (Perkin Elmer) after 1 hr and ˜16 hrs incubation. cAMP concentration in the cells was determined by the use of a ‘standard curve’ generated from the output of known cAMP concentrations as described below.
Each assay plate contained a “standard curve” of known concentrations of cAMP, in 10 fold dilutions. This is an essential part of the assay as there is high inter-plate variability. The plates were read on an Envision multilabel plate reader fitted with Alphascreen technology and the raw data was imported into GraphPad Prism 4 software (GraphPad, USA) for analysis.
Background: Bead proximity is the source of the signal in Alpha formats.

T2 sequence (Q01726 whole entry): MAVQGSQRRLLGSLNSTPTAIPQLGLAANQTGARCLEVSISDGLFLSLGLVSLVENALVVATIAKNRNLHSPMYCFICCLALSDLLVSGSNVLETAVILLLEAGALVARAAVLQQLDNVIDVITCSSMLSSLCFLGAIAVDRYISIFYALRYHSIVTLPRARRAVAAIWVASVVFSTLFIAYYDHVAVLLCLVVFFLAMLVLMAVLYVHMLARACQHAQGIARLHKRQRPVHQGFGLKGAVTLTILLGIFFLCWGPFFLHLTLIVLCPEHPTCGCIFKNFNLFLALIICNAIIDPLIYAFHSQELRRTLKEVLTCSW
T1 sequence (Q01726 whole entry): as above

As usually defined, the IC50 is the point on the concentration scale where inhibition reaches its midpoint. `NCC[C@@H]1N[C@H](CNC(=O)/C=C/c2ccc(Cl)cc2)CCN(CC(c2ccccc2)c2ccccc2)C1=O` [Compound 136, (E)-N-(((3S,5S)-3-(2-aminoethyl)-1-(2,2-diphenylethyl)-2-oxo-1,4-diazepan-5-yl)methyl)-3-(4-chlorophenyl)acrylamide]: the IC50 at human MC1R (hMC1R) was below 10 µM. Further, the “human MC1R agonism (cAMP, fold incease over basal level)” value at human MC1R [1] was 1.5 fold.
As a reminder, the EC50 is the concentration giving half of the maximal effect. Take `N=C(N)NCCC[C@@H]1N[C@H](CNC(=O)c2ccc3ccccc3c2)CCN(CC2CCCCC2)C1=O` [Compound 116, N-(((3S,5S)-1-(cyclohexylmethyl)-3-(3-guanidinopropyl)-2-oxo-1,4-diazepan-5-yl)methyl)-2-naphthamide]: the IC50 on human MC1R (hMC1R) was below 10 µM. Moreover, the EC50 at human MC1R [2] worked out at 16 µM.
Turning to `N=C(N)NCCC[C@@H]1N[C@@H](CNC(=O)c2ccc(-c3ccccc3)cc2)CCN(C(c2ccccc2)c2ccccc2)C1=O` [Compound 185, N-(((3S,5R)-1-benzhydryl-3-(3-guanidinopropyl)-2-oxo-1,4-diazepan-5-yl)methyl)biphenyl-4-carboxamide], on human MC1R (hMC1R), the IC50 is below 10 µM. For the same compound, the “human MC1R agonism (cAMP, fold incease over basal level)” value at human MC1R [1] came out at 1.5 fold.
In the same order, the values of `N=C(N)NCCC[C@H]1N[C@@H](CNC(=O)c2ccc(-c3ccccc3)cc2)CCN(C(c2ccccc2)c2ccccc2)C1=O` [Compound 186, N-(((3R,5R)-1-benzhydryl-3-(3-guanidinopropyl)-2-oxo-1,4-diazepan-5-yl)methyl)biphenyl-4-carboxamide] are below 10 µM and 2.5 fold.
As to `N=C(N)NCCC[C@@H]1N[C@H](CNC(=O)c2ccc(Oc3ccccc3)cc2)CCN(CC(c2ccccc2)c2ccccc2)C1=O` [Compound 112, N-(((3S,5S)-1-(2,2-diphenylethyl)-3-(3-guanidinopropyl)-2-oxo-1,4-diazepan-5-yl)methyl)-4-phenoxybenzamide], the IC50 on human MC1R (hMC1R) was below 10 µM. Also, the EC50 at human MC1R [2] is 11 µM.
For `N=C(N)NCCC[C@H]1C(=O)N(C(c2ccccc2)c2ccccc2)CC[C@H]2CN(Cc3ccc(-c4ccccc4)cc3)C(=O)N21` [Compound 110, 1-(3-((5S,9aS)-7-benzhydryl-2-(biphenyl-4-ylmethyl)-3,6-dioxooctahydro-1H-imidazo[1,5-d][1,4]diazepin-5-yl)propyl)guanidine], at human MC1R (hMC1R), the IC50 was below 10 µM. Also, at human MC1R [2], the EC50 is 78 µM. Moreover, the “human MC1R agonism (cAMP, fold incease over basal level)” value at human MC1R [1] is listed as 1.5 fold.
Regarding `N=C(N)NCCC[C@@H]1N[C@H](CNC(=O)c2cnc3ccccc3c2)CCN(CC(c2ccccc2)c2ccccc2)C1=O` [Compound 109, N-(((3S,5S)-1-(2,2-diphenylethyl)-3-(3-guanidinopropyl)-2-oxo-1,4-diazepan-5-yl)methyl)quinoline-3-carboxamide], on human MC1R (hMC1R), the IC50 was below 10 µM.
On to `CC(C)(NC(=O)/C=C/c1ccc(Cl)cc1)[C@@H]1CCN(CC(c2ccccc2)c2ccccc2)C(=O)[C@H](CCN2CCCCC2)N1` [Compound 165, (E)-3-(4-chlorophenyl)-N-(2-((3S,5S)-1-(2,2-diphenylethyl)-2-oxo-3-(2-(piperidin-1-yl)ethyl)-1,4-diazepan-5-yl)propan-2-yl)acrylamide], for which the IC50 on human MC1R (hMC1R) was below 10 µM.
For `CC1CCC(C)N1CC[C@@H]1N[C@H](CNC(=O)/C=C/c2ccc(Cl)cc2)CCN(CC(c2ccccc2)c2ccccc2)C1=O` (stereo partly drawn) [Compound 160, (E)-3-(4-chlorophenyl)-N-(((3S,5S)-3-(2-(2,5-dimethylpyrrolidin-1-yl)ethyl)-1-(2,2-diphenylethyl)-2-oxo-1,4-diazepan-5-yl)methyl)acrylamide], on human MC1R (hMC1R), the 50% inhibitory concentration (IC50) is below 10 µM.
The same measure, in the same setting: then `CC[C@H](CN1CC[C@@H](CNC(=O)c2ccc3cc(Cl)ccc3c2)N[C@@H](CCN(C(C)=O)C(C)C)C1=O)c1ccccc1` [Compound 180, 6-chloro-N-(((3S,5S)-3-(2-(N-isopropylacetamido)ethyl)-2-oxo-1-((S)-2-phenylbutyl)-1,4-diazepan-5-yl)methyl)-2-naphthamide], with below 10 µM.
In the case of `CN(C)C(=N)NCCC[C@@H]1N[C@H](CNC(=O)c2ccc3ccccc3c2)CCN(CC(c2ccccc2)c2ccccc2)C1=O` [Compound 117, N-(((3S,5S)-3-(3-(3,3-dimethylguanidino)propyl)-1-(2,2-diphenylethyl)-2-oxo-1,4-diazepan-5-yl)methyl)-2-naphthamide], the IC50 on human MC1R (hMC1R) is below 10 µM.
`CC(=O)N[C@@H](Cc1c[nH]cn1)C(=O)N[C@H](Cc1ccccc1)[C@@H]1CCN(CCc2c[nH]c3ccccc23)C(=O)[C@H](CCCNC(=N)N)N1` [Compound 119, (S)—N—((R)-1-((3S,5S)-1-(2-(1H-indol-3-yl)ethyl)-3-(3-guanidinopropyl)-2-oxo-1,4-diazepan-5-yl)-2-phenylethyl)-2-acetamido-3-(1H-imidazol-4-yl)propanamide]: the IC50 at human MC1R (hMC1R) is below 10 µM. The EC50 on human MC1R [2] came to 7 µM.
With `CNC(=O)[C@H](Cc1ccc2ccccc2c1)N1CC[C@H](CNC(=O)[C@@H](N)Cc2ccc(Cl)cc2)N[C@@H](CCCNC(=N)N)C1=O` [Compound 173, (S)-2-amino-3-(4-chlorophenyl)-N-(((3S,5R)-3-(3-guanidinopropyl)-1-((S)-1-(methylamino)-3-(naphthalen-2-yl)-1-oxopropan-2-yl)-2-oxo-1,4-diazepan-5-yl)methyl)propanamide], the IC50 on human MC1R (hMC1R) was below 10 µM.
